The text below walks through data of patent publication US10179771B2 (GALAPAGOS NV, priority 2014, dated 2019).

Molecules are shown by their SMILES.

One experiment addresses T1, Recombinant human TYK2 catalytic domain (Homo sapiens, UniProt P29597).
T1 construct: Recombinant human TYK2 catalytic domain (amino acids 871-1187; catalog number 08-147); purchased Carna biosciences 08-147
T1 sequence (P29597 871-1187): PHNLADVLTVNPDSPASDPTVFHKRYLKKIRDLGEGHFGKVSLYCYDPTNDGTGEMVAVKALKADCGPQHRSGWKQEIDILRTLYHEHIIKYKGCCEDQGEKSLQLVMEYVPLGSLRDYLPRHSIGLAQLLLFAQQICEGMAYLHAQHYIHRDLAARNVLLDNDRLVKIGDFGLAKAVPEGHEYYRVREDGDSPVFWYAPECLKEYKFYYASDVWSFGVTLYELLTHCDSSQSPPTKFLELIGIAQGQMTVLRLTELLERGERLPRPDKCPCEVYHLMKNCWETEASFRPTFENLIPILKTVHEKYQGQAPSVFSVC
Kind of experiment: TYK2 inhibition assay. Type of experiment: biochemical. As to conditions: Comparative Compounds (Table XII). The protocol:
Recombinant human TYK2 catalytic domain (amino acids 871-1187; catalog number 08-147) was purchased from Carna biosciences. 5 ng of TYK2 was incubated with 12.5 μg polyGT substrate (Sigma catalog number P0275) in kinase reaction buffer (25 mM Hepes pH 7.2, 50 mM NaCl, 0.5 mM EDTA, 1 mM DTT, 5 mM MnCl2, 10 mM MgCl2, 0.1% Brij-35, 0.1 μM non-radioactive ATP, 0.125 μCi ^33P-gamma-ATP (GE Healthcare, catalog number AH9968) final concentrations) with or without 5 μL containing test compound or vehicle (DMSO, 1% final concentration), in a total volume of 25 μL, in a polypropylene 96-well plate (Greiner, V-bottom). After 90 min at 30° C., reactions were stopped by adding 25 μL/well of 150 mM phosphoric acid. All of the terminated kinase reaction was transferred to prewashed (75 mM phosphoric acid) 96 well filter plates (Perkin Elmer catalog number 6005177) using a cell harvester (Perkin Elmer). Plates were washed 6 times with 300 μL per well of a 75 mM phosphoric acid solution and the bottom of the plates was sealed. 40 μL/well of Microscint-20 was added, the top of the plates was sealed and readout was performed using the Topcount (Perkin Elmer). Kinase activity was calculated by subtracting counts per min (cpm) obtained in the presence of a positive control inhibitor (10 μM staurosporine) from cpm obtained in the presence of vehicle. The ability of a test compound to inhibit this activity was determined as: Percentage inhibition=((cpm determined for sample with test compound present−cpm determined for sample with positive control inhibitor) divided by (cpm determined in the presence of vehicle−cpm determined for sample with positive control inhibitor))*100.
Dose dilution series were prepared for the compounds enabling the testing of dose-response effects in the TYK2 assay and the calculation of the IC50 for each compound. Each compound was routinely tested at concentration of 20 μM followed by a 1/3 serial dilution, 8 points (20 μM-6.67 μM-2.22 μM-740 nM-247 nM-82 nM-27 nM-9 nM) in a final concentration of 1% DMSO. When potency of compound series increased, more dilutions were prepared and/or the top concentration was lowered (e.g. 5 μM, 1 μM).
Broadly, the IC50 is the midpoint of a concentration-inhibition curve. Regarding `CN(c1ccc2ncn(C)c2c1)c1ccc(C#N)cc1F` [C, 3-fluoro-4-[methyl-(3-methylbenzimidazol-5-yl)amino]benzonitrile, reference compound], the IC50 was over 500 nM.

The experiment is the same for the next values; noted with them: Illustrative Compounds of the invention (Table XI).
On to `CNC(=O)Nc1cc(Oc2cnc(C#N)cc2C)cc2c1ncn2C`, for which the IC50 is 0.1 to 50 nM.

With `CCc1cc(C#N)cc(F)c1N(C)c1cc(NC(=O)[C@@H]2C[C@@H]2F)c2ncn(C)c2c1` (racemic) [Cpd 7, N-(6-((4-cyano-2-ethyl-6-fluorophenyl)(methyl)amino)-1-methyl-1H-benzo[d]imidazol-4-yl)-2-fluorocyclopropanecarboxamide (1S,2S)/(1R,2R) racemic mixture], the IC50 was 0.1 to 50 nM.

In the case of `CCc1cc(C#N)ncc1N(C)c1cc(NC(=O)C2CC2)c2ncn(C)c2c1` [Cpd 1, N-(6-((6-cyano-4-ethylpyridin-3-yl)(methyl)amino)-1-methyl-1H-benzo[d]imidazol-4-yl)cyclopropanecarboxamide], the IC50 was 0.1 to 50 nM.

Turning to `CCc1cc(C#N)cc(F)c1Nc1cc(NC(=O)C2CC2)c2ncn(C)c2c1` [Cpd 2, N-(6-(4-cyano-2-ethyl-6-fluorophenylamino)-1-methyl-1H-benzo[d]imidazol-4-yl)cyclopropanecarboxamide], the IC50 is 0.1 to 50 nM.

On to `CCc1cc(C#N)cc(F)c1N(C)c1cc(NC(=O)C2CC2)c2ncn(C)c2c1` [Cpd 3, N-(6-((4-cyano-2-ethyl-6-fluorophenyl)(methyl)amino)-1-methyl-1H-benzo[d]imidazol-4-yl)cyclopropanecarboxamide], for which the IC50 is 0.1 to 50 nM.

In the case of `CCc1cc(C#N)ncc1N(C)c1cc(NC(=O)OC)c2ncn(C)c2c1` [Cpd 4, methyl 6-((6-cyano-4-ethylpyridin-3-yl)(methyl)amino)-1-methyl-1H-benzo[d]imidazol-4-ylcarbamate], the IC50 fell in the range of 0.1 to 50 nM.

In the case of `CCc1cc(C#N)cc(F)c1N(C)c1cc(NC(=O)OC)c2ncn(C)c2c1` [Cpd 5, methyl 6-((4-cyano-2-ethyl-6-fluorophenyl)(methyl)amino)-1-methyl-1H-benzo[d]imidazol-4-ylcarbamate], the IC50 was in the range of 0.1 to 50 nM.

As for `CCc1cc(C#N)ncc1Oc1cc(NC(=O)[C@H]2C[C@H]2F)c2ncn(C)c2c1` [Cpd 6, (1R,2R)-N-[6-[(6-cyano-4-ethyl-3-pyridyl)oxy]-1-methyl-benzimidazol-4-yl]-2-fluoro-cyclopropanecarboxamide], the IC50 lay in the range of 0.1 to 50 nM.

Take `CCc1cc(C#N)ncc1N(C)c1cc(NC(=O)[C@H]2C[C@H]2F)c2ncn(C)c2c1` [Cpd 8, (1R,2R)-N-(6-((6-cyano-4-ethylpyridin-3-yl)(methyl)amino)-1-methyl-1H-benzo[d]imidazol-4-yl)-2-fluorocyclopropanecarboxamide]: the IC50 lay in the range of 0.1 to 50 nM.

For the compound `Cc1cc(C#N)ncc1N(C)c1cc(NC(=O)[C@H]2C[C@H]2F)c2ncn(C)c2c1` [Cpd 9, (1R,2R)-N-(6-((6-cyano-4-methylpyridin-3-yl)(methyl)amino)-1-methyl-1H-benzo[d]imidazol-4-yl)-2-fluorocyclopropanecarboxamide], the IC50 is 0.1 to 50 nM.

As for `CCc1cc(C#N)ccc1Oc1cc(NC(=O)[C@H]2C[C@H]2F)c2ncn(C)c2c1` [Cpd 10, (1R,2R)-N-[6-(4-cyano-2-ethyl-phenoxy)-1-methyl-benzimidazol-4-yl]-2-fluoro-cyclopropanecarboxamide], the IC50 was 0.1 to 50 nM.

As for `CN(c1cc(NC(=O)[C@H]2C[C@H]2F)c2ncn(C)c2c1)c1c(F)cc(C#N)cc1Cl` [Cpd 11, (1R,2R)-N-[6-(2-chloro-4-cyano-6-fluoro-N-methyl-anilino)-1-methyl-benzimidazol-4-yl]-2-fluoro-cyclopropanecarboxamide], the IC50 lay within 0.1 to 50 nM.

As to `Cc1cc(F)ncc1N(C)c1cc(NC(=O)[C@H]2C[C@H]2F)c2ncn(C)c2c1` [Cpd 12, (1R,2R)-2-fluoro-N-[6-[(6-fluoro-4-methyl-3-pyridyl)-methyl-amino]-1-methyl-benzimidazol-4-yl]cyclopropanecarboxamide], the IC50 lay in the range of 0.1 to 50 nM.

As for `CN(c1cc(NC(=O)[C@H]2C[C@H]2F)c2ncn(C)c2c1)c1ccc(F)nc1F` [Cpd 13, (1R,2R)-N-[6-[(2,6-difluoro-3-pyridyl)-methyl-amino]-1-methyl-benzimidazol-4-yl]-2-fluoro-cyclopropanecarboxamide], the IC50 lay in the range of 0.1 to 50 nM.

For the compound `CN(c1cc(NC(=O)[C@H]2C[C@H]2F)c2ncn(C)c2c1)c1ccc(C#N)nc1F` [Cpd 14, (1R,2R)-N-[6-[(6-cyano-2-fluoro-3-pyridyl)-methyl-amino]-1-methyl-benzimidazol-4-yl]-2-fluoro-cyclopropanecarboxamide], the IC50 fell in the range of 0.1 to 50 nM.

Turning to `CN(c1cc(NC(=O)[C@H]2C[C@H]2F)c2ncn(C)c2c1)c1ccc(C#N)cc1F` [Cpd 15, (1R,2R)-N-[6-(4-cyano-2-fluoro-N-methyl-anilino)-1-methyl-benzimidazol-4-yl]-2-fluoro-cyclopropanecarboxamide], the IC50 is 0.1 to 50 nM.

On to `Cc1cc(S(C)(=O)=O)cc(F)c1N(C)c1cc(NC(=O)[C@H]2C[C@H]2F)c2ncn(C)c2c1` [Cpd 16, (1R,2R)-2-fluoro-N-[6-(2-fluoro-N,6-dimethyl-4-methylsulfonyl-anilino)-1-methyl-benzimidazol-4-yl]cyclopropanecarboxamide], for which the IC50 lay in the range of 0.1 to 50 nM.

For the compound `CN(c1cc(NC(=O)[C@H]2C[C@H]2F)c2ncn(C)c2c1)c1ccc(S(C)(=O)=O)cc1F` [Cpd 17, (1R,2R)-2-fluoro-N-[6-(2-fluoro-N-methyl-4-methylsulfonyl-anilino)-1-methyl-benzimidazol-4-yl]cyclopropanecarboxamide], the IC50 lay in the range of 100 to 500 nM.

Consider `CCc1cc(S(C)(=O)=O)ncc1N(C)c1cc(NC(=O)C2CC2)c2ncn(C)c2c1` [Cpd 18, N-[6-[(4-ethyl-6-methylsulfonyl-3-pyridyl)-methyl-amino]-1-methyl-benzimidazol-4-yl]cyclopropanecarboxamide], for which the IC50 lay within 0.1 to 50 nM.

As to `Cc1cc(S(C)(=O)=O)cc(F)c1N(C)c1cc(NC(=O)C2CC2)c2ncn(C)c2c1` [Cpd 19, N-[6-(2-fluoro-N,6-dimethyl-4-methylsulfonyl-anilino)-1-methyl-benzimidazol-4-yl]cyclopropanecarboxamide], the IC50 lay in the range of 0.1 to 50 nM.

Regarding `Cc1cc(C#N)ncc1Oc1cc(NC(=O)[C@H]2C[C@H]2F)c2ncn(C)c2c1` [Cpd 20, (1R,2R)-N-[6-[(6-cyano-4-methyl-3-pyridyl)oxy]-1-methyl-benzimidazol-4-yl]-2-fluoro-cyclopropanecarboxamide], the IC50 lay within 0.1 to 50 nM.

In the case of `Cc1cc(C#N)nc(F)c1N(C)c1cc(NC(=O)[C@H]2C[C@H]2F)c2ncn(C)c2c1` [Cpd 21, (1R,2R)-N-[6-[(6-cyano-2-fluoro-4-methyl-3-pyridyl)-methyl-amino]-1-methyl-benzimidazol-4-yl]-2-fluoro-cyclopropanecarboxamide], the IC50 fell in the range of 0.1 to 50 nM.

As for `Cc1cnc(C#N)c(F)c1N(C)c1cc(NC(=O)[C@H]2C[C@H]2F)c2ncn(C)c2c1` [Cpd 22, (1R,2R)-N-[6-[(2-cyano-3-fluoro-5-methyl-4-pyridyl)-methyl-amino]-1-methyl-benzimidazol-4-yl]-2-fluoro-cyclopropanecarboxamide], the IC50 lay in the range of 0.1 to 50 nM.

`Cc1cc(C#N)ncc1Oc1cc(NC(=O)C2CC2)c2ncn(C)c2c1` [Cpd 23, N-[6-[(6-cyano-4-methyl-3-pyridyl)oxy]-1-methyl-benzimidazol-4-yl]cyclopropanecarboxamide]: the IC50 lay in the range of 0.1 to 50 nM.

On to `CCc1cc(C(N)=O)ncc1N(C)c1cc(NC(=O)C2CC2)c2ncn(C)c2c1` [Cpd 24, 5-((4-(cyclopropanecarboxamido)-1-methyl-1H-benzo[d]imidazol-6-yl)(methyl)amino)-4-ethylpicolinamide], for which the IC50 was 0.1 to 50 nM.

Regarding `CCc1cc(C(N)=O)ncc1N(C)c1cc(NC(=O)[C@H]2C[C@H]2F)c2ncn(C)c2c1` [Cpd 25, 4-ethyl-5-((4-((1R,2R)-2-fluorocyclopropanecarboxamido)-1-methyl-1H-benzo[d]imidazol-6-yl)(methyl)amino)picolinamide], the IC50 was 0.1 to 50 nM.
